Source: patent publication EP0070803A2, “Antibiotically active aminotriazolylcephalosporin derivatives and their preparation” (CIBA-GEIGY AG, priority 1981, dated 1983)
≈ marks a conversion by molar mass, not a printed value. Structures can show the parent of a compound that is named as a salt. Where two headings read alike, the source gives them in different places.

Columns and labels:
Proteus rettgeri 856 = assay: Antibiotic activity in vitro, agar dilution method (MIC); assay type: cell-based; details: Providencia rettgeri, DST agar
[1] = tested on: Staphylococcus aureus 2999i^+p^+; assay: as above; assay type: cell-based; details: DST agar
[2] = tested on: Staphylococcus aureus 10B; assay: Chemotherapeutic activity in vivo against systemic infection in mice (ED50); details: systemic infection in female SPF MF2 mice
Description: (§1) B. Die chemotherapeutische Wirksamkeit in vivo gegen systemische Infektionen in weiblichen SPF, MF2 Mäusen wurde nach der Methode von Zak., 0., et al., 1979, Drugs Exptl. Clin. Res. 5, 45-59, ermittelt. Die gefundenen ED50-Werte in Milligramm Substanz pro Kilogramm Maus (mg/kg) für eine Anzahl von Mikroorganismen werden für die subcutan (s.c.) applizierten Testverbindungen in der Tabelle 2 angegeben.

Escherichia coli 205 [3] = assay: as above; details: s.c., systemic infection in female SPF MF2 mice
Description: as §1

Escherichia coli 205 [4] = assay: Antibiotic activity in vitro, agar dilution method (MIC); assay type: cell-based; details: DST agar
[5] = tested on: Pseudomonas aeruginosa ATCC 12055; assay: as above; assay type: cell-based; details: ATCC12055, DST agar
Serratia marcescens 344 = assay: as above; assay type: cell-based; details: DST agar
[6] = tested on: Bacteroides fragilis LO 1; assay: as above; assay type: cell-based; details: LO1, DST agar
[7] = tested on: Neisseria meningitidis 1316; assay: as above; assay type: cell-based; details: DST agar
[8] = tested on: Streptococcus pyogenes Aronson; assay: as above; assay type: cell-based; details: DST agar
[9] = tested on: Haemophilus influenzae NCTC 4560; assay: as above; assay type: cell-based; details: DST agar
[10] = tested on: Klebsiella pneumoniae 327; assay: as above; assay type: cell-based; details: DST agar
Proteus mirabilis 774 = assay: as above; assay type: cell-based; details: DST agar
[11] = tested on: Clostridium perfringens 194; assay: microbe, parasite or virus in culture; assay type: cell-based
Proteus morganii 2359 = assay: Chemotherapeutic activity in vivo against systemic infection in mice (ED50); details: Morganella morganii, sc, systemic infection in female SPF MF2 mice
Description: as §1

[12] = Staphylococcus aureus, read-out: MIC
[13] = Escherichia coli, 205, agar dilution, read-out: MIC
[14] = Haemophilus influenzae, NCTC4560, agar dilution, read-out: MIC
[15] = Klebsiella pneumoniae, 327, agar dilution, read-out: MIC
[16] = Proteus mirabilis, 774, agar dilution, read-out: MIC
[17] = Escherichia coli, 205, sc, read-out: ED50
[18] = Neisseria meningitidis, 1316, agar dilution, read-out: MIC
[19] = Staphylococcus aureus, 10B, sc, read-out: ED50
[20] = Serratia marcescens, 344, agar dilution, read-out: MIC

Compound `CO/N=C(\C(=O)N[C@@H]1C(=O)N2C(C(=O)O)=C(COC(C)=O)CS[C@H]12)c1nc(N)n(C)n1` [Beispiel 2, 7β-[2-(5-Amino-1-methyl-1H-1,2,4-triazol-3-yl)-2-Z-methoxyimino-acetamino]-3-acetoxymethyl-3-cephem-4-carbonsäure-hydrochlorid] has an MIC (Proteus rettgeri 856) of 0.01 µg/mL, an MIC [1, 12] of 8 µg/mL and an ED50 ([2]; s.c.) of 10 mg/kg. For the same compound, the ED50 (Escherichia coli 205 [3]) was 1 mg/kg, the MIC (Escherichia coli 205 [4]; [13]) was 0.1 µg/mL and the MIC [5] was 128 µg/mL. The MIC (Serratia marcescens 344; agar dilution) was 1 µg/mL, the MIC [6] was 8 µg/mL and the MIC ([7]; agar dilution) was 0,02 µg/ml. For the same compound, the MIC [8] was 0.5 µg/mL, the MIC [9, 14] was 1 µg/mL and the MIC [10, 15] was 0.1 µg/mL. The MIC (Proteus mirabilis 774; [16]) was 0.05 µg/mL and the MIC [11] was 0.5 µg/mL.
With `CC(=O)OCC1=C(C(=O)O)N2C(=O)[C@@H](NC(=O)Cc3nc(N)n(C)n3)[C@H]2SC1` [Testverbindung 1, 7β-[2-(5-Amino-1-methyl-1H-1,2,4-triazol-3-yl)-acetamino]-3-acetoxymethyl-3-cephem-4-carbonsäure] the MIC (Proteus rettgeri 856) was 32 µg/mL (≈ 78 µM), the MIC [1, 12] was 8 µg/mL (≈ 19.5 µM) and the ED50 (Proteus morganii 2359) was over 30 mg/kg. For the same compound, the ED50 (Escherichia coli 205 [3]; [17]) was over 30 mg/kg, the MIC (Escherichia coli 205 [4]; [13]) was 32 µg/mL (≈ 78 µM) and the MIC [7, 18] was 2 µg/mL (≈ 4.87 µM). For the same compound, the MIC [8] was 1 µg/mL (≈ 2.44 µM), the MIC [9, 14] was 4 µg/mL (≈ 9.75 µM) and the MIC [10, 15] was 16 µg/mL (≈ 39 µM). For the same compound, the MIC (Proteus mirabilis 774; [16]) was 128 µg/mL (≈ 312 µM) and the MIC [11] was 16 µg/mL (≈ 39 µM).
`CO/N=C(\C(=O)N[C@@H]1C(=O)N2C(C(=O)O)=C(COC(C)=O)CS[C@H]12)c1nc(N)n(C)n1` [Testverbindung 2, 7ß-[2-(5-Amino-l-methyl-lH-l,2,4-triazol-3-yl)-2-Z-methoxy-imino-acetamino]-3-acetoxymethyl-3-cephem-4-carbonsäure] was tested, and the MIC ([1]; listed as 3) was 4 µg/mL (≈ 8.82 µM), the ED50 (Proteus morganii 2359) was over 30 mg/kg and the ED50 ([2]; s.c., listed as 3) was over 30 mg/kg. The ED50 (Escherichia coli 205 [3]; listed as 3) was 0,4 mg/kg, the MIC (Escherichia coli 205 [4]; agar dilution, listed as 3) was 0,05 µg/ml and the MIC (Serratia marcescens 344; agar dilution, listed as 3) was 0,1 µg/ml. For the same compound, the MIC ([7]; agar dilution, listed as 3) was 0,1 µg/ml, the MIC ([9]; agar dilution, listed as 3) was 0,5 µg/ml and the MIC ([10]; agar dilution, listed as 3) was 0,05 µg/ml. For the same compound, the MIC (Proteus mirabilis 774; agar dilution, listed as 3) was 0,1 µg/ml.
For `CO/N=C(\C(=O)N[C@@H]1C(=O)N2C(C(=O)O)=C(CSc3nnnn3C)CS[C@H]12)c1nc(N)n(C)n1` [Testverbindung 3, 7β-[2-(5-Amino-1-methyl-1H-1,2,4-triazol-3-yl)-2-Z-methoxyimino-acetamino]-3-(1-methyltetrazol-5-yl-thiomethyl)-3-cephem-4-carbonsäure], the MIC (Proteus rettgeri 856) was 0.1 µg/mL (≈ 0.196 µM), the MIC [1, 12] was 8 µg/mL (≈ 15.7 µM) and the ED50 (Proteus morganii 2359) was 50 mg/kg. For the same compound, the ED50 [2, 19] was 28 mg/kg, the ED50 (Escherichia coli 205 [3]; [17]) was 1.7 mg/kg and the MIC (Escherichia coli 205 [4]; [13]) was 0.2 µg/mL (≈ 0.393 µM). The MIC [5] was 1 µg/mL (≈ 1.96 µM), the MIC (Serratia marcescens 344; [20]) was 0.5 µg/mL (≈ 0.981 µM) and the MIC [6] was 16 µg/mL (≈ 31.4 µM). It also gave an MIC [7, 18] of 0.5 µg/mL (≈ 0.981 µM), an MIC [8] of 1 µg/mL (≈ 1.96 µM) and an MIC [9, 14] of 8 µg/mL (≈ 15.7 µM). The MIC [10, 15] was 0.2 µg/mL (≈ 0.393 µM), the MIC (Proteus mirabilis 774; [16]) was 0.2 µg/mL (≈ 0.393 µM) and the MIC [11] was 0.2 µg/mL (≈ 0.393 µM).
With `CO/N=C(\C(=O)N[C@@H]1C(=O)N2C(C(=O)[O-])=C(C[n+]3ccc(C(N)=O)cc3)CS[C@H]12)c1nc(N)n(C)n1` [Testverbindung 4, 7β-[2-(5-Amino-1-methyl-1H-1,2,4-triazol-3-yl)-2-Z-methoxyimino-acetamino]-3-(4-carbamoylpyridiniomethyl)-3-cephem-4-carboxylat] the MIC (Proteus rettgeri 856) was 0.02 µg/mL (≈ 0.0388 µM), the MIC [1, 12] was 32 µg/mL (≈ 62.1 µM) and the ED50 (Escherichia coli 205 [3]; [17]) was 2.5 mg/kg. It also gave an MIC (Escherichia coli 205 [4]; [13]) of 0.1 µg/mL (≈ 0.194 µM), an MIC (Serratia marcescens 344; [20]) of 0.5 µg/mL (≈ 0.97 µM) and an MIC [6] of 4 µg/mL (≈ 7.76 µM). It also gave an MIC [7, 18] of 0.5 µg/mL (≈ 0.97 µM), an MIC [8] of 32 µg/mL (≈ 62.1 µM) and an MIC [9, 14] of 2 µg/mL (≈ 3.88 µM). For the same compound, the MIC [10, 15] was 0.1 µg/mL (≈ 0.194 µM), the MIC (Proteus mirabilis 774; [16]) was 0.1 µg/mL (≈ 0.194 µM) and the MIC [11] was 8 µg/mL (≈ 15.5 µM).
With `CO/N=C(\C(=O)N[C@@H]1C(=O)N2C(C(=O)[O-])=C(C[n+]3ccc(C(N)=O)cc3)CS[C@H]12)c1nc(N=CN(C)C)n(C)n1` [Testverbindung 5] the MIC (Proteus rettgeri 856) was 8 µg/mL (≈ 14 µM), the MIC [1, 12] was 8 µg/mL (≈ 14 µM) and the ED50 (Proteus morganii 2359) was 70 mg/kg. The ED50 [2, 19] was 55 mg/kg, the ED50 (Escherichia coli 205 [3]; [17]) was over 30 mg/kg and the MIC (Escherichia coli 205 [4]; [13]) was 32 µg/mL (≈ 56.1 µM). For the same compound, the MIC [5] was 128 µg/mL (≈ 224 µM), the MIC (Serratia marcescens 344; [20]) was 128 µg/mL (≈ 224 µM) and the MIC [6] was 32 µg/mL (≈ 56.1 µM). It also gave an MIC [7, 18] of 8 µg/mL (≈ 14 µM), an MIC [8] of 0.5 µg/mL (≈ 0.876 µM) and an MIC [9, 14] of 128 µg/mL (≈ 224 µM). The MIC [10, 15] was 32 µg/mL (≈ 56.1 µM), the MIC (Proteus mirabilis 774; [16]) was 32 µg/mL (≈ 56.1 µM) and the MIC [11] was 2 µg/mL (≈ 3.51 µM).
